Laboratory results published in paper PMC11311842, “Radiosynthesis and Preclinical Evaluation of ^18F-Labeled Estradiol Derivatives with Different Lipophilicity for PET Imaging of Breast Cancer” (Cancers, 2024).

Columns and labels:
[1] = test system: ER- MDA-MB-231 tumor slices; assay: In vitro autoradiography of MDA-MB-231 tumor slices; format: binding, human; conditions: 60 min, room temperature, with or without E2 (72 µM)
Procedure: (§1) MCF-7, MDA-MB231 and T47D tumors grown in nude mice were collected and frozen in a hexane/dry ice bath (−70 °C). Tumor slices (14 µm) were prepared on a cryostat microtome HM 500 O (Microm, Walldorf, Germany), thaw-mounted on HistoBond® adhesive glass slides (Marienfeld, Lauda-Königshofen, Germany) and stored at −80 °C. For in vitro autoradiography studies, the tumor tissue sections were thawed and pre-incubated in incubation buffer (50 mM Tris HCl, 5 mM MgCl2, 0.2% bovine serum albumin (BSA), pH 7.4) at room temperature for 15 min. Then, the sections were transferred to incubation buffer containing ^18F-TA-Glyco-EE (3–5 MBq) in a total volume of 70 mL. For the determination of non-specific binding, separate sections were incubated with ^18F-TA-Glyco-EE in the presence of E2 (72 µM). After an incubation time of 60 min, the sections were washed three times with incubation buffer, followed by a short dip in ice-cold distilled water. The slices were carefully dried in a stream of warm air and finally placed on a phosphor imager screen (Fuji Imaging Plate BAS-IP SR 2025 E) overnight prior to readout (30 µm resolution) using the HD-CR-35 Bio scanner (Elysia-Raytest, Straubenhardt, Germany). […] Regions of interest were analyzed from 3–4 tumor slices from the MCF-7, MDA-MB231 and T47D tumors, and mean values of the intensity per area were calculated.

ER+ MCF-7 tumor slices = assay: In vitro autoradiography of MCF-7 tumor slices; format: binding, human; conditions: 60 min, room temperature, with or without E2 (72 µM)
Procedure: as §1

[2] = Determination of logD7.4 (n-octanol/PBS); format: physicochemical; conditions: n-octanol/PBS pH 7.4; mean ± SD, three independent experiments
Procedure: For the determination of the octanol–water coefficient, an aliquot of the radiotracer was added to PBS (500 µL, pH 7.4) and n-octanol (500 µL) in an Eppendorf tube. The mixture was vortexed and subsequently centrifuged, each for 1 min. Three samples (each 100 µL) were taken from both the PBS and the n-octanol layer and measured using a γ-counter (Wallac Wizard, PerkinElmer, Waltham, MA, USA). The logD7.4 was expressed as log(cpmoctanol/cpmPBS) and reported as mean ± SD. The determination of logD7.4 was performed in three independent experiments, each performed in triplicate.

MCF-7 cells = assay: Stability in cells (radio-HPLC of cell lysate); format: in vitro ADME, human; conditions: 90 min incubation, 37 °C, absence of serum
Procedure: ^18F-TA-Glyco-EE was incubated for 90 min at 37 °C with MCF-7 cells (350,000 cells/well, seeded one day prior to the experiment in 24-well plates) in cell culture medium. After washing twice with ice-cold PBS, the cells were scraped off, and 200 µL PBS was added for resuspension. The cell suspension was transferred to Eppendorf tubes, homogenized using ultrasound (Bandelin sonoplus HD2070 ultrasonic homogenizer, room temperature, BANDELIN electronic GmbH, Berlin, Germany) and then centrifuged. The supernatant was quenched in 10% TFA, and after centrifugation the resulting supernatant was analyzed by radio-HPLC (Chromolith RP-18e, 100 × 4.6 mm, 10–100% acetonitrile (containing 0.1% TFA) in water (containing 0.1% TFA) over 5 min, 4 mL/min).

ER+ MCF-7 cells = assay: Cellular uptake assay in ER+ cells; format: cell-based, human
Procedure: One day prior to the experiment, MCF-7 and MDA-MB-231 cells were seeded in 24-well plates (350,000 cells/well). The cells were washed once with cell medium. The cells were incubated with the respective radiotracer in cell medium (510 µL) for 10, 20, 30, 60, 90, 120 min at 37 °C in the absence and presence of estradiol (E2, final concentration of 72 µM). After incubation, the plates were set on ice and washed with ice-cold PBS twice, following cell lysis and detachment with NaOH (0.1 M, 750 µL, 37 °C). The cells were transferred to counting tubes, and the radioactivity was measured using a γ-counter (Wallac Wizard, PerkinElmer, Waltham, MA, USA). The protein concentration of each well was determined in duplicate using Bradford reagent (Bio-Rad Laboratories GmbH, Feldkirchen, Germany). The cellular uptake assay was performed in 2–4 independent experiments, each performed in quadruplicate for each time point.

[3] = test system: T47D (ER+) and MDA-MB-231 (ER-) tumor-bearing nude mice; assay: Biodistribution in tumor-bearing nude mice; format: in vivo
Procedure: Female NMRI nude mice (Crl:NMRI-Foxn1^nu) were purchased from Charles River (Charles River Laboratories Inc., Wilmington, MA, USA) at the age of four weeks and kept in groups of four to five animals in individually ventilated cages in a twelve hours dark/light cycle, with unlimited access to water and standard chow. At the age of nine to ten weeks, one 17β-estradiol pellet per animal (0.72 mg per pellet, 3 mm diameter) with a 60-day release time (Innovative Research of America, Sarasota, FL, USA) was subcutaneously implanted on the back under isoflurane anesthesia. After three days, approximately 2–3 × 10^6 MCF-7, T47D or MDA-MB-231 tumor cells (in 50 µL PBS) were mixed with Matrigel (50 µL, BD Biosciences, Becton, Dickinson and Company, Franklin Lakes, NJ, USA) and injected subcutaneously to the back of the mice. Tumor diameters and weight of the animals were recorded five times a week. Biodistribution or imaging studies were performed three–four weeks after the inoculation of the cells.
For biodistribution experiments, nude mice bearing T47D and MDA-MB-231 tumors (n = 3, per group) were injected with ^18F-TA-Glyco-EE (2–4 MBq) under isoflurane anesthesia. After 30, 60 or 90 min, the mice were sacrificed by cervical dislocation. Blood, as well as organs and tissue from the lung, liver, kidneys, heart, spleen, brain, muscle, femur and tumors, were harvested and measured for radioactivity in the γ-counter (Wallac Wizard, PerkinElmer, Waltham, MA, USA). The samples were weighed, and the radioactivity of each tissue sample was calculated as a percentage of the total injected dose per gram tissue (%ID/g).

Compound: CC(=O)OC1C(C[18F])OC(n2cc(C3(O)CCC4C5CCc6cc(O)ccc6C5CCC43C)nn2)C(OC(C)=O)C1OC(C)=O (stereo not drawn) [^18F-TA-Glyco-EE]
- Binding to MDA-MB-231 tumor sections (autoradiography) [1]: negligible binding
- Binding to MCF-7 tumor sections (autoradiography) (ER+ MCF-7 tumor slices): high specific binding
- logD7.4 [2]: 2.3 ± 0.1
- Stability in MCF-7 cells (intracellular radioactivity, HPLC) (MCF-7 cells): without any significant deacetylation
- Cellular uptake relative to ^18F-PEG-EE and ^18F-Glyco-EE (ER+ MCF-7 cells; ER+ MCF-7 cells): 10 fold
- Cellular uptake in MCF-7 cells (ER+ MCF-7 cells; after 60 min, 37 °C, absence of E2): 270 %/mg
- Uptake in MDA-MB-231 tumors ([3]; 30 min p.i.): 0.9 %ID/g
- Uptake in T47D tumors ([3]; 30 min p.i.): 1.0 %ID/g
- Uptake in intestine ([3]; 30 min p.i.): 10 %ID/g
- Uptake in liver ([3]; 30 min p.i.): 13 %ID/g
- Tumor uptake ER+ T47D versus ER- MDA-MB-231 ([3]; 60 min and 90 min p.i., multiple t-test): statistically significant differences
- Uptake in liver ([3]; 90 min p.i.): 1.2 %ID/g
- Uptake in blood and all other non-target organs ([3]; all time points (30, 60, 90 min p.i.)): low
- Uptake in T47D or MDA-MB-231 tumors ([3]; as summarised in the discussion): < 1 %ID/g
- Uptake in liver and intestine ([3]; decreasing over 90 min): less than 3 %ID/g
